Assay results published in patent US11834393B2, “Organic compounds having taste-modifying properties” (GIVAUDAN SA, priority 2013, dated 2023).

Tests used:
[1] = Beef bouillon, evaluation by a panel of experienced tasters; conditions: 1 ppm dosed to bouillon prepared from bouillon cubes
Procedure: A beef bouillon was prepared using bouillon cubes obtained from a local supermarket.

[2] = Mango flavoured beverage, evaluation by a panel of experienced tasters; conditions: 1 ppm dosed to mango drink (mango flavour 0.05% w/w, mango juice 0.18% w/w, sugar 8% w/w, citric acid 0.1% w/w)
Procedure: A mango-flavoured beverage was prepared using a standard mango flavour (0.05% w/w), mango juice (0.18% w/w), sugar (8% w/w) and citric acid (0.1% w/w).

With `CCCCCCCCCCCCCCCCCCNC(=O)C(N)CCSC` (stereo not shown) [Ex 1, 2-amino-4-(methylthio)-N-octadecylbutanamide] the “taste of the beef bouillon compared with the reference (panel)” value [1] was “more salty and more full”.

With `CCCCCCCCCCCCCCCCCCNC(=O)C1CCCN1` (stereo not shown) [Ex 3, N-octadecylpyrrolidine-2-carboxamide] the “taste of the mango drink compared with the reference drink (panel)” value [2] was “more over-ripe, more sweet, and more full and had an increased mouthfeel”.

With `CCCCCCCCCCCCCCCCCCNC(=O)C1(N)CC1` [Ex 5, 1-amino-N-octadecylcyclopropanecarboxamide] the “taste of the mango drink compared with the reference drink (panel)” value [2] was “more sweet, more ripe mango, more full and more long-lasting”.

In the case of `CCCCCCCCCCCCCCCCNC(=O)CCCN` [Ex 7, N-hexadecyl 4-aminobutyramide], the “taste of the beef bouillon compared with the reference (panel)” value [1] is reported as “more salty and more umami and was more longlasting”.
